Measurements: patent US6413508B1, “Green leaf volatiles as synergists for insect pheromones” (The United States of America as represented by the …, priority 1988, dated 2002)

How the values were obtained:
Boll Weevils [1] = assay: Competitive field test with released weevils, four trap array; type: in vivo, Anthonomus grandis; conditions: 1.0 mg of the compound
Text: The second series of experiments involved an array of four traps. […] The two treatments being tested simultaneously in this competitive arrangement were placed alternately in the traps, i.e., the two traps baited with the same treatment were located diagonally from each other. Odorants diluted in hexane were released from glass capillaries placed in small vials in a container in each trap. […] Traps were then immediately baited. In each test, traps were checked and insects were removed at 1530 hrs and 1700 hrs on the day of release, and before 0900 hrs the next day (the time at which the test was terminated) in order to remove those insects which might have responded prior to darkness on the day of release.

Scolytus multistriatus = assay: Field test with bark beetles, 4-wk, Orono, Me.; type: in vivo; conditions: for captures of bark beetles in traps when released with multilure, relative to the pheromone alone: 10 mg each; for Mean % Trap Capture: hexanal 10 mg, 1-hexanol 10 mg, multilure, alone or combined, 4-wk test period
Protocol: Mean % trap captures were calculated from competitive field tests during a 4-wk test period on campus of the University of Maine, Orono, Me. Total number of S. multistriatus captured was 423. Multilure consisted of α-multistriatin, methyl heptanol, and cubebene as obtained commercially from Dewill Corp., Elmhurst, Ill. Both 1-hexanol and hexanal were released from cigarette filters after dilution in the […] described [McKibben, supra]. Mean weekly trap captures were compared by Duncan's multiple range test [Duncan, Biometrics 11: 1-42 (1955)].

Boll Weevils [2] = assay: Competitive field test with released weevils, triangular trap array; type: in vivo, Anthonomus grandis; conditions: for Mean Trap Capture: three replicates; for activity alone in competition with the other treatments: triangular array, 100 mg alone
Protocol: Two series of field tests were performed involving released boll weevils, in which grandlure was placed in competition with grandlure + the synergist. In the first series of experiments, a triangular array of traps was used. One trap was placed at each corner of a 20 m equilateral triangle (total of three traps). The three treatments released in this triangular array of traps were: 1) grandlure 3 mg; 2) grandlure 3 mg+synergist 100 mg; and 3) synergist 100 mg. The three synergists tested in these experiments were: trans-2-hexen-1-ol, 1-hexanol, and cis-3-hexen-1-ol. Cigarette filters were used to release the experimental odorants. One hundred insets (50 males and 50 females) were released along a line 20 m from each side of the triangle (300 insects total) at ca. 1000 hrs prior to baiting of the traps at 1200 hrs. Traps were check and insects were removed at 1400 hrs, 1600 hrs, and 1800 hrs, the times at which the test was terminated.

[3] = system: Single Olfactory Cells Responsive to Volatiles Emanating from a Crushed Cotton Square; assay: Single-cell electrophysiology: action potentials from single olfactory cells; type: cell-based, Anthonomus grandis; conditions: volatiles emanating from 1 μg of odorant; cell responsive to crushed cotton square
Text: Single-cell recording techniques are described in detail elswhere [Dickens, Mitt. Schweiz. Entomol. Ges. 52: 203 (1979); Dickens et al., J. Chem. Ecol. 10: 583 (1984)]. In brief, microelectrodes used for recordings were constructed from 50.8 μm diameter tungsten wire electrolytically sharpened to a tip of 1-2 μm. The recording electrode was positioned under optical control (150-200 X) with a Leitz high-power micromanipulator near either the base of one of the three sensory bands encircling the club, or the base of an individual sensillum just distal to each sensory band region. The ground electrode was inserted in either the rostrum or distal end of the scape. Action potentials were amplified and conditioned by a Grass P-15 preamplifier and Tektronix 5A22N amplifier prior to visualization on a Tektronix 5223 digitizing oscilloscope. The signal then passed through a Teac R51-D data recorder for recording on cassette tapes prior to visualization on a Tektronix 5111 analog oscilloscope. Data were photographed from the analog oscilloscope with a Tektronix C-5C oscilloscope camera. Trains of action potentials were counted visually.
Upon obtaining a single cell preparation, odorous stimuli were presented every 3 min. […] The first two stimuli tested were volatiles emanating from 1 μg of grandlure, followed by volatiles emanating from a crushed cotton square. These two stimuli served to determine whether the cell was activated by the attractive pheromone of the boll weevil and/or volatiles emanating from its food source.

female C. capitata = assay: Wind tunnel assay with female Mediterranean fruit flies; type: in vivo, Ceratitis capitata; conditions: laboratory flight tunnel
Protocol: Flies were assayed in a rectangular glass wind tunnel (90 cm×90 cm×280 cm; flow rate=20 cm/sec) using laboratory-reared 5- to 7-day-old female C. capitata. The odor from 100 male C. capitata (30-50% calling) was obtained, and split through “Teflon” tubing to a secondary container containing the green leaf odor [either 100 μL of a 0.05% mixture in paraffin oil of trans-2-hexen-1-ol, 1-hexanol, cis-3-hexen-1-ol, trans-2-hexenal, and hexanal at a ratio of 158:100:63:24:11 (=glv, green leaf volatiles); or 100 μL of a 10% solution in silicon oil of trans-2-hexenal alone]. The odors were released into the wind tunnel via “Teflon” tubing to […] yellow plastic spheres [McInnis, J. Econ. Entomol. (in press)] with multiple holes to allow odors to emanate. Fifty flies were released 200 cm downwind from the source spheres, and both the number of flies on the spheres at a given time, and total number of landings by the flies were recorded during a 30-min test period. The test with the green leaf volatile blend was replicated five times; the test with trans-2-hexenal was replicated six times.

[4] = Gas chromatographic analyses of the aldehyde released in the field; conditions: field conditions in which it was released
[5] = grandlure 3 mg vs 1-hexanol 100 mg vs both
[6] = grandlure 3 mg vs cis-3-hexen-1-ol 100 mg vs both

For CCCCCCO [1-hexanol], the “synergism with grandlure (0.8 mg) in competition with grandlure (0.8 mg) alone” value (shortened to “synergism with grandlure (0.8 mg)”) (Boll Weevils [1]) was “effective synergists”, the “captures of bark beetles in traps when released with multilure, relative to the pheromone alone” value (Scolytus multistriatus) was “increased” and the “Mean % Trap Capture” value (Scolytus multistriatus) was 0a %. The “% Total” value (Boll Weevils [2]; [5]) was 0%, the “Mean Trap Capture” value (Boll Weevils [2]; [5]) was 0 A and the “activity alone in competition with the other treatments” value (Boll Weevils [2]) was “relatively inactive”. The “Response in impulses/initial 500 msec, Cell #1” value [3] was 11 impulses/initial 500 msec, the “Response in impulses/initial 500 msec, Cell #2” value [3] was 30 impulses/initial 500 msec and the “Response in impulses/initial 500 msec, Cell #3” value [3] was 42 impulses/initial 500 msec.
For CC1=CC[C@H]2C[C@@H]1C2(C)C [(-)-α-pinene, (−)-α-pinene], the “Response in impulses/initial 500 msec, Cell #1” value [3] was 4 impulses/initial 500 msec, the “Response in impulses/initial 500 msec, Cell #2” value [3] was 0 impulses/initial 500 msec and the “Response in impulses/initial 500 msec, Cell #3” value [3] was 1 impulses/initial 500 msec. The “Response in impulses/initial 500 msec, Cell #4” value [3] was 7 impulses/initial 500 msec.
In the case of O=Cc1ccccc1 [benzaldehyde], the “Response in impulses/initial 500 msec, Cell #1” value [3] is reported as 3 impulses/initial 500 msec, the “Response in impulses/initial 500 msec, Cell #2” value [3] is reported as 0 impulses/initial 500 msec and the “Response in impulses/initial 500 msec, Cell #3” value [3] is reported as 1 impulses/initial 500 msec. For the same molecule, the “Response in impulses/initial 500 msec, Cell #4” value [3] was 0 impulses/initial 500 msec.
In the case of CCC/C=C\CO [cis-2-hexen-1-ol], the “synergism with grandlure (0.8 mg)” value (Boll Weevils [1]) is reported as “no synergism”.
With CC/C=C\CCO [cis-3-hexen-1-ol] the “synergism with grandlure (0.8 mg)” value (Boll Weevils [1]) was “effective synergists”, the “% Total” value (Boll Weevils [2]; [6]) was 0% and the “Mean Trap Capture” value (Boll Weevils [2]; [6]) was 0 B. For the same molecule, the “activity alone in competition with the other treatments” value (Boll Weevils [2]) was “relatively inactive”.
With CC(C)=CCC/C(C)=C/CO [geraniol] the “Response in impulses/initial 500 msec, Cell #1” value [3] was 1 impulses/initial 500 msec, the “Response in impulses/initial 500 msec, Cell #2” value [3] was 3 impulses/initial 500 msec and the “Response in impulses/initial 500 msec, Cell #3” value [3] was 5 impulses/initial 500 msec. For the same molecule, the “Response in impulses/initial 500 msec, Cell #4” value [3] was 0 impulses/initial 500 msec.
For CCCCCCC=O [heptanal], the “Response in impulses/initial 500 msec, Cell #1” value [3] was 1 impulses/initial 500 msec, the “Response in impulses/initial 500 msec, Cell #2” value [3] was 0 impulses/initial 500 msec and the “Response in impulses/initial 500 msec, Cell #3” value [3] was 0 impulses/initial 500 msec. The “Response in impulses/initial 500 msec, Cell #4” value [3] was 16 impulses/initial 500 msec.
For CCCCCC=O [hexanal], the “captures of bark beetles in traps when released with multilure, relative to the pheromone alone” value (Scolytus multistriatus) was “increased”, the “Mean % Trap Capture” value (Scolytus multistriatus) was 0.3a % and the “Response in impulses/initial 500 msec, Cell #1” value [3] was 16 impulses/initial 500 msec. The “Response in impulses/initial 500 msec, Cell #2” value [3] was 13 impulses/initial 500 msec and the “Response in impulses/initial 500 msec, Cell #4” value [3] was 27 impulses/initial 500 msec.
For C=CC(C)(O)CCC=C(C)C (stereo not shown) [linalool], the “Response in impulses/initial 500 msec, Cell #1” value [3] was 3 impulses/initial 500 msec, the “Response in impulses/initial 500 msec, Cell #2” value [3] was 2 impulses/initial 500 msec and the “Response in impulses/initial 500 msec, Cell #3” value [3] was 1 impulses/initial 500 msec. For the same molecule, the “Response in impulses/initial 500 msec, Cell #4” value [3] was 11 impulses/initial 500 msec.
With C=CC(=C)CCC=C(C)C [myrcene] the “Response in impulses/initial 500 msec, Cell #1” value [3] was 2 impulses/initial 500 msec, the “Response in impulses/initial 500 msec, Cell #2” value [3] was 1 impulses/initial 500 msec and the “Response in impulses/initial 500 msec, Cell #3” value [3] was 1 impulses/initial 500 msec. For the same molecule, the “Response in impulses/initial 500 msec, Cell #4” value [3] was 3 impulses/initial 500 msec.
With CC(C)=CCC/C(C)=C\CO [nerol] the “Response in impulses/initial 500 msec, Cell #1” value [3] was 3 impulses/initial 500 msec, the “Response in impulses/initial 500 msec, Cell #2” value [3] was 4 impulses/initial 500 msec and the “Response in impulses/initial 500 msec, Cell #3” value [3] was 8 impulses/initial 500 msec. For the same molecule, the “Response in impulses/initial 500 msec, Cell #4” value [3] was 11 impulses/initial 500 msec.
For CCCCCCCCC=O [nonanal], the “Response in impulses/initial 500 msec, Cell #1” value [3] was 2 impulses/initial 500 msec, the “Response in impulses/initial 500 msec, Cell #2” value [3] was 0 impulses/initial 500 msec and the “Response in impulses/initial 500 msec, Cell #3” value [3] was 0 impulses/initial 500 msec. The “Response in impulses/initial 500 msec, Cell #4” value [3] was 4 impulses/initial 500 msec.
With CCC/C=C/C=O [trans-2-hexenal] the “synergism with grandlure (0.8 mg)” value (Boll Weevils [1]) was “no significant difference”, the “response of female flies to male odor plus the green leaf odor relative to male odor alone” value (female C. capitata) was “enhanced response” and the “Response in impulses/initial 500 msec, Cell #1” value [3] was 27 impulses/initial 500 msec. The “Response in impulses/initial 500 msec, Cell #2” value [3] was 24 impulses/initial 500 msec, the “Response in impulses/initial 500 msec, Cell #3” value [3] was 1 impulses/initial 500 msec and the “Response in impulses/initial 500 msec, Cell #4” value [3] was 38 impulses/initial 500 msec. For the same molecule, the “degradation under field conditions” value [4] was “in part been degraded”.
With CC(C)=CCC[C@H](C)[C@@]1(O)CC=C(C)CC1 [β-bisabolol] the “Response in impulses/initial 500 msec, Cell #1” value [3] was 3 impulses/initial 500 msec, the “Response in impulses/initial 500 msec, Cell #2” value [3] was 3 impulses/initial 500 msec and the “Response in impulses/initial 500 msec, Cell #3” value [3] was 5 impulses/initial 500 msec. The “Response in impulses/initial 500 msec, Cell #4” value [3] was 2 impulses/initial 500 msec.
In the case of C=C1CC/C=C(\C)CC[C@@H]2[C@@H]1CC2(C)C [β-caryophyllene], the “Response in impulses/initial 500 msec, Cell #1” value [3] is reported as 2 impulses/initial 500 msec, the “Response in impulses/initial 500 msec, Cell #2” value [3] is reported as 2 impulses/initial 500 msec and the “Response in impulses/initial 500 msec, Cell #3” value [3] is reported as 0 impulses/initial 500 msec. For the same molecule, the “Response in impulses/initial 500 msec, Cell #4” value [3] was 1 impulses/initial 500 msec.
For (−)-limonene [(-)-limonene], the “Response in impulses/initial 500 msec, Cell #1” value [3] was 0 impulses/initial 500 msec, the “Response in impulses/initial 500 msec, Cell #2” value [3] was 0 impulses/initial 500 msec and the “Response in impulses/initial 500 msec, Cell #3” value [3] was 2 impulses/initial 500 msec. The “Response in impulses/initial 500 msec, Cell #4” value [3] was 1 impulses/initial 500 msec.
In the case of gossonerol, the “Response in impulses/initial 500 msec, Cell #1” value [3] is reported as 3 impulses/initial 500 msec and the “Response in impulses/initial 500 msec, Cell #4” value [3] is reported as 12 impulses/initial 500 msec.
With α-bisabolol the “Response in impulses/initial 500 msec, Cell #1” value [3] was 3 impulses/initial 500 msec, the “Response in impulses/initial 500 msec, Cell #2” value [3] was 12 impulses/initial 500 msec and the “Response in impulses/initial 500 msec, Cell #3” value [3] was 3 impulses/initial 500 msec. For the same molecule, the “Response in impulses/initial 500 msec, Cell #4” value [3] was 2 impulses/initial 500 msec.
